From patent US9695155B2, “Herbicidal substituted pyrimidinyloxy benzene compounds” (E. I. DU PONT DE NEMOURS AND COMPANY, priority 2013, dated 2017)

Tests used:
giant foxtail = assay: Test A preemergence; assay type: in vivo, Setaria faberii
Outline: (§1)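 Scoring: eye-based comparison with untreated controls, 0 for no effect through 100 for complete control, at about day 10. Treatments: directed soil spray preemergence; foliar spray postemergence on 2–10 cm plants at the one- to two-leaf stage. Medium: loam soil with sand.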

soybean = assay: Test C preemergence; assay type: in vivo, Glycine max; settings: for Soybean plant response rating: preemergence; for Plant response rating, Soybean: Preemergence, 31 g ai/ha, scale 0 to 100, 0 no effect, 100 complete control
Outline: (§2)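 Sown in loam/sand → sprayed pre-emergence; or grown to 1–4 leaves in peat mix → sprayed post-emergence. Same solvent/surfactant formulation both ways. Greenhouse 13–15 d. Score 0–100 visual.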

ragweed = assay: Test C preemergence; assay type: in vivo, Ambrosia elatior; settings: for Ragweed plant response rating: preemergence; for Plant response rating, Ragweed: Preemergence, 31 g ai/ha, scale 0 to 100, 0 no effect, 100 complete control
Outline: as §2

lambsquarters = assay: Test C postemergence; assay type: in vivo, Chenopodium album; settings: for Plant response rating (0 to 100), Lambsquarters: postemergence; for Plant response rating, Lambsquarters: Postemergence, scale 0 to 100 (0 no effect, 100 complete control)
Outline: as §2

barnyardgrass [1] = assay: Test A preemergence; assay type: in vivo, Echinochloa crus-galli
Outline: as §1

morningglory = assay: Test C preemergence; assay type: in vivo, Ipomoea coccinea; settings: for Morningglory plant response rating: preemergence; for Plant response rating, Morningglory: Preemergence, 31 g ai/ha, scale 0 to 100, 0 no effect, 100 complete control
Outline: as §2

corn [2] = assay: Test C postemergence; assay type: in vivo, Zea mays; settings: for Plant response rating (0 to 100), Corn: postemergence; for Plant response rating, Corn: Postemergence, scale 0 to 100 (0 no effect, 100 complete control)
Outline: as §2

velvetleaf = assay: Test A preemergence; assay type: in vivo, Abutilon theophrasti
Outline: as §1

blackgrass [3] = assay: Test C preemergence; assay type: in vivo, Alopecurus myosuroides; settings: for Blackgrass plant response rating: preemergence; for Plant response rating, Blackgrass: Preemergence, 31 g ai/ha, scale 0 to 100, 0 no effect, 100 complete control
Outline: as §2

Italian ryegrass = assay: Test C postemergence; assay type: in vivo, Lolium multiflorum; settings: for Plant response rating (0 to 100), Ryegrass, Italian: postemergence; for Plant response rating, Ryegrass, Italian: Postemergence, scale 0 to 100 (0 no effect, 100 complete control)
Outline: as §2

pigweed = assay: Test C postemergence; assay type: in vivo, Amaranthus retroflexus; settings: for Plant response rating (0 to 100), Pigweed: postemergence; for Plant response rating, Pigweed: Postemergence, scale 0 to 100 (0 no effect, 100 complete control)
Outline: as §2

blackgrass [4] = assay: Test C postemergence; assay type: in vivo, Alopecurus myosuroides; settings: for Plant response rating (0 to 100), Blackgrass: postemergence; for Plant response rating, Blackgrass: Postemergence, scale 0 to 100 (0 no effect, 100 complete control)
Outline: as §2

corn [5] = assay: Test C preemergence; assay type: in vivo, Zea mays; settings: for Corn plant response rating: preemergence; for Plant response rating, Corn: Preemergence, 31 g ai/ha, scale 0 to 100, 0 no effect, 100 complete control
Outline: as §2

waterhemp = assay: Test C preemergence; assay type: in vivo, Amaranthus rudis; settings: for Waterhemp plant response rating: preemergence
Excerpt: (§3) Seeds of plant species selected from blackgrass (Alopecurus myosuroides), Italian ryegrass (Lolium multiflorum), wheat, winter (winter wheat, Triticum aestivum), galium (catchweed bedstraw, Galium aparine), corn (Zea mays), large (Lg) crabgrass (Digitaria sanguinalis), giant foxtail (Setaria faberii), johnsongrass (Sorghum halepense), lambsquarters (Chenopodium album), morningglory (Ipomoea coccinea), yellow nutsedge (Cyperus esculentus), pigweed (Amaranthus retroflexus), ragweed (common ragweed, Ambrosia elatior), soybean (Glycine max), barnyardgrass (Echinochloa crus-galli), oilseed rape (Brassica napus), waterhemp (common waterhemp, Amaranthus rudis), kochia (Kochia scoparia), wild oat (Avena fatua), surinam grass (Brachiaria decumbens), foxtail, green (green foxtail, Setaria viridis), goosegrass (Eleusine indica), bromegrass, downy (downy bromegrass, Bromus tectorum), nightshade (eastern black nightshade, Solanum ptycanthum), cocklebur (common cocklebur, Xanthium strumarium), cupgrass, woolly (woolly cupgrass, Eriochloa villosa), bermudagrass (Cynodon dactylon), sunflower, (common oilseed sunflower, Helianthus annuus), Russian thistle (Salsola kali), and velvetleaf (Abutilon theophrasti) were planted into a blend of loam soil and sand and treated preemergence with test chemicals formulated in a non-phytotoxic solvent mixture which included a surfactant.
(§4) At the same time, plants selected from these crop and weed species and also barley, winter (winter barley, Hordeum vulgare), windgrass (Apera spica-venti), chickweed (common chickweed, Stellaria media), deadnettle (henbit deadnettle, Lamium amplexicaule), and canarygrass (littleseed canarygrass, Phalaris minor) were planted in pots containing Redi-Earth® planting medium (Scotts Company, 14111 Scottslawn Road, Marysville, Ohio 43041) comprising spaghnum peat moss, vermiculite, wetting agent and starter nutrients and treated with postemergence applications of test chemicals formulated in the same manner. Plants ranged in height from 2 to 18 cm (1- to 4-leaf stage) for postemergence treatments. Treated plants and controls were maintained in a greenhouse for 13 to 15 days, after which time all species were compared to controls and visually evaluated. Plant response ratings, summarized in Table C, are based on a scale of 0 to 100 where 0 is no effect and 100 is complete control. A dash (-) response means no test result.

barnyardgrass [6] = assay: Test C preemergence; assay type: in vivo, Echinochloa crus-galli; settings: for Barnyardgrass plant response rating: preemergence
Excerpt: as §3, §4

oilseed rape = assay: Test C preemergence; assay type: in vivo, Brassica napus; settings: for Oilseed Rape plant response rating: preemergence
Excerpt: as §3, §4

[7] = 125 g ai/ha, 0 to 100 scale where 0 is no effect and 100 is complete control
[8] = 500 g ai/ha, 0 to 100 scale, 0 no effect, 100 complete control, approx. 10 days
[9] = 62 g ai/ha, scale 0 (no effect) to 100 (complete control)
[10] = 125 g ai/ha, scale 0 (no effect) to 100 (complete control)
[11] = 250 g ai/ha, scale 0 (no effect) to 100 (complete control)
[12] = 16 g ai/ha, scale 0 to 100 (0 no effect, 100 complete control)
[13] = Preemergence, 31 g ai/ha, scale 0 to 100, 0 no effect, 100 complete control

Structure (SMILES): FC(F)(F)c1cnn(-c2ccccc2Oc2ncc(Cl)cn2)c1 [Compound 16]
- Foxtail, Giant plant response rating (giant foxtail; [7]): 100
- Foxtail, Giant plant response rating (giant foxtail; [8]): 100
- Soybean plant response rating (soybean; [9]): 90
- Soybean plant response rating (soybean; [10]): 90
- Soybean plant response rating (soybean; [11]): 90
- Plant response rating, Soybean (soybean): 75
- Ragweed plant response rating (ragweed; [9]): 25
- Ragweed plant response rating (ragweed; [10]): 55
- Ragweed plant response rating (ragweed; [11]): 60
- Plant response rating, Ragweed (ragweed): 0
- Plant response rating (0 to 100), Lambsquarters (lambsquarters; 125 g ai/ha): 100
- Plant response rating (0 to 100), Lambsquarters (lambsquarters; 250 g ai/ha): 100
- Plant response rating, Lambsquarters (lambsquarters; 31 g ai/ha, 13 to 15 days): 75
- Plant response rating, Lambsquarters (lambsquarters; 62 g ai/ha): 100
- Barnyardgrass plant response rating (barnyardgrass [1]; [7]): 100
- Barnyardgrass plant response rating (barnyardgrass [1]; [8]): 100
- Morningglory plant response rating (morningglory; [9]): 75
- Morningglory plant response rating (morningglory; [10]): 90
- Morningglory plant response rating (morningglory; [11]): 98
- Plant response rating, Morningglory (morningglory): 10
- Plant response rating (0 to 100), Corn (corn [2]; 125 g ai/ha): 10
- Plant response rating (0 to 100), Corn (corn [2]; 250 g ai/ha): 20
- Plant response rating, Corn (corn [2]; 31 g ai/ha, 13 to 15 days): 5
- Plant response rating, Corn (corn [2]; 62 g ai/ha): 5
- Velvetleaf plant response rating (velvetleaf; [7]): 100
- Velvetleaf plant response rating (velvetleaf; [8]): 100
- Blackgrass plant response rating (blackgrass [3]; [9]): 90
- Blackgrass plant response rating (blackgrass [3]; [10]): 90
- Blackgrass plant response rating (blackgrass [3]; [11]): 90
- Plant response rating, Blackgrass (blackgrass [3]): 85
- Plant response rating (0 to 100), Ryegrass, Italian (Italian ryegrass; 125 g ai/ha): 20
- Plant response rating (0 to 100), Ryegrass, Italian (Italian ryegrass; 250 g ai/ha): 20
- Plant response rating, Ryegrass, Italian (Italian ryegrass; 31 g ai/ha, 13 to 15 days): 10
- Plant response rating, Ryegrass, Italian (Italian ryegrass; 62 g ai/ha): 15
- Plant response rating (0 to 100), Pigweed (pigweed; 125 g ai/ha): 100
- Plant response rating (0 to 100), Pigweed (pigweed; 250 g ai/ha): 100
- Plant response rating, Pigweed (pigweed; 31 g ai/ha, 13 to 15 days): 80
- Plant response rating, Pigweed (pigweed; 62 g ai/ha): 98
- Plant response rating (0 to 100), Blackgrass (blackgrass [4]; 125 g ai/ha): 30
- Plant response rating (0 to 100), Blackgrass (blackgrass [4]; 250 g ai/ha): 70
- Plant response rating, Blackgrass (blackgrass [4]; 31 g ai/ha, 13 to 15 days): 5
- Plant response rating, Blackgrass (blackgrass [4]; 62 g ai/ha): 30
- Corn plant response rating (corn [5]; [9]): 15
- Corn plant response rating (corn [5]; [10]): 25
- Corn plant response rating (corn [5]; [11]): 35
- Plant response rating, Corn (corn [5]): 0

Structure (SMILES): FCc1cccc(Oc2ncc(F)cn2)c1-n1cc(C(F)(F)F)cn1 [Compound 118]
- Waterhemp plant response rating (waterhemp; [12]): 85
- Waterhemp plant response rating (waterhemp; [9]): 100
- Waterhemp plant response rating (waterhemp; [10]): 100
- Plant response rating, Waterhemp (waterhemp; [13]): 100
- Foxtail, Giant plant response rating (0 to 100 scale) (giant foxtail; 31 g ai/ha): 80
- Plant response rating, Foxtail, Giant (giant foxtail; [7]): 100
- Soybean plant response rating (soybean; [12]): 60
- Soybean plant response rating (soybean; [9]): 90
- Soybean plant response rating (soybean; [10]): 95
- Plant response rating, Soybean (soybean): 75
- Ragweed plant response rating (ragweed; [12]): 70
- Ragweed plant response rating (ragweed; [9]): 100
- Ragweed plant response rating (ragweed; [10]): 100
- Plant response rating, Ragweed (ragweed): 100
- Barnyardgrass plant response rating (0 to 100 scale) (barnyardgrass [1]; 31 g ai/ha): 50
- Plant response rating, Barnyardgrass (barnyardgrass [1]; [7]): 100
- Morningglory plant response rating (morningglory; [12]): 40
- Morningglory plant response rating (morningglory; [9]): 100
- Morningglory plant response rating (morningglory; [10]): 100
- Plant response rating, Morningglory (morningglory): 75
- Barnyardgrass plant response rating (barnyardgrass [6]; [12]): 20
- Barnyardgrass plant response rating (barnyardgrass [6]; [9]): 100
- Barnyardgrass plant response rating (barnyardgrass [6]; [10]): 100
- Plant response rating, Barnyardgrass (barnyardgrass [6]; [13]): 80
- Oilseed Rape plant response rating (oilseed rape; [12]): 98
- Oilseed Rape plant response rating (oilseed rape; [9]): 100
- Oilseed Rape plant response rating (oilseed rape; [10]): 100
- Plant response rating, Oilseed Rape (oilseed rape; [13]): 100
- Blackgrass plant response rating (blackgrass [3]; [12]): 35
- Blackgrass plant response rating (blackgrass [3]; [9]): 90
- Blackgrass plant response rating (blackgrass [3]; [10]): 95
- Plant response rating, Blackgrass (blackgrass [3]): 80
- Corn plant response rating (corn [5]; [12]): 10
- Corn plant response rating (corn [5]; [9]): 70
- Corn plant response rating (corn [5]; [10]): 85
- Plant response rating, Corn (corn [5]): 40
